We go through 89 molecules from PubChem BioAssay AID1249 (Columbia University Molecular Screening Center, 2008).

Each structure is given as a SMILES string. Calls of active or inactive are those of the source. The rule behind the calls is not given here.

Usually inhibition stands for the change of the read-out against control, counted positive when it falls.

The first test is described as follows: modifiers of cytoskeleton assembly, confirmation, imaging, high-content imaging, retest and dose response (AID 1249).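 For inhibition: plate controls were untreated cells for no effect and reference compound treated cells for full effect.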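 Note: compound exposure lasted 24 h before fixation.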 Conditions: cell-based imaging, cytoskeleton assembly phenotype, high content; at 2 µM; stronger effect = higher value.
With `COc1ccc(-c2nnc(SCC(=O)NC3CCCCC3)o2)cc1OC`, the inhibition was -3.7% (inactive).
Still for that read-out and setting: to `CCC(=O)N1c2ccc(S(=O)(=O)CCC(=O)N3CCn4c3nc3ccccc34)cc2CC1C` (centres undefined) belongs 0% (inactive).
The same measure, in the same setting: to `CCOc1ccc2[nH]c(C)c(CN3CCOCC3)c(=O)c2c1` belongs -4.5% (inactive); to `CCCOC(=O)NC(CC)COC(=O)Nc1cccc(C)c1C` (centres undefined), -5% (inactive); to `COc1ccccc1N(C)S(=O)(=O)c1ccc(C(=O)NCC(C)C)cc1`, 2.3% (inactive).
Take `CCOc1ccc(-n2cc(C(=O)NCc3ccco3)c3cc(OC)c(OC)cc3c2=O)cc1`: the inhibition is -5.9% (inactive).
Same read-out and setting: with `COc1ccc(/C=N/NC(=O)c2ccccc2Cl)cc1CSc1nc2ccccc2s1` the figure was -6.6% (inactive); with `COc1ccc(Nc2cc(C(=O)NCCCN3CCOCC3)c3ccccc3n2)cc1OC`, 4.3% (inactive).
Same read-out and setting: to `CCCOC(=O)C1C2C=C[C@]3(CN(CCc4ccccc4)C(=O)[C@H]13)O2` (some centres undefined) belongs -9.4% (inactive).
The same measure, in the same setting: with `CCCOC(=O)c1ccc(NC(=O)Oc2ccccc2)cc1` the figure was -5.5% (inactive); with `COc1ccc(-c2cc(C(=O)Nc3cc(C)n(Cc4ccc(Cl)cc4)n3)no2)cc1OC`, 6.8% (inactive).
For `O=C(Oc1csc(=S)n1C(=O)c1ccccc1)c1ccccc1`, the inhibition was -3% (inactive).
On the same count and under the same terms, to `CC[C@@H](C)[C@H](NC(=O)OC(C)(C)C)c1nnc(S(=O)(=O)Cc2cc(C)ccc2C)o1` belongs -2.4% (inactive); to `CC1=NNC(=O)/C1=C\c1cn(-c2ccccc2)nc1-c1ccc(Cl)cc1`, -11.5% (inactive); to `CC(C)NC1CS(=O)(=O)CC1O` (centres undefined), 4.9% (inactive).
In the case of `O=C1CCSc2cccc3cccc(c23)N1`, the inhibition is -5.2% (inactive).
Still for that read-out and setting: to `COC(=O)c1ccc(-n2nnnc2SCC(=O)N2CCCCC2)cc1` belongs 3.1% (inactive); to `O=C(NCc1ccco1)c1cc(-c2ccc(Cl)cc2)on1`, 10.5% (inactive); to `O=C(COC(=O)C1(c2ccccc2F)CCCC1)NC1CCS(=O)(=O)C1` (centres undefined), -1% (inactive).
On to `Cc1ccc(OCc2ccoc2C(=O)O)cc1C`, for which the inhibition is -8.8% (inactive).
The same measure, in the same setting: with `O=C1C2CCCN2C(c2cccnc2)N1c1ccc(Cl)c(Cl)c1` (centres undefined) the figure was 3.6% (inactive).
Consider `COc1ccc(CCN(Cc2cc3cccc(C)c3[nH]c2=O)C(=O)N2CCCC2)cc1OC`, for which the inhibition is 4.4% (inactive).
The same measure, in the same setting: to `O=C(c1cc(-c2ccncc2)nc2ccc(Br)cc12)N1CCN(c2ccccn2)CC1` belongs -1% (inactive); to `N=C1C(c2nc3ccccc3s2)=C(O)CN1Cc1ccco1`, 5.2% (inactive); to `CCn1c(=O)cc(OCC(=O)NCc2ccco2)c2ccccc21`, -5% (inactive).
With `CCNC(=O)CCn1nc(-c2ccc(Cl)cc2)c2ccccc2c1=O`, the inhibition was -0.2% (inactive).
As for `NC(=S)N/N=C\c1ccc(-c2cccc(Cl)c2Cl)o1`, the inhibition is -8.9% (inactive).
Regarding `Cc1cccnc1N(C(=O)Nc1ccccc1)C1=NCC(C)(C)S1`, the inhibition was -10.2% (inactive).
Still for that read-out and setting: with `O=C(NCc1ccccc1)NC1(C(=O)N2CCCC2)CCCCC1` the figure was 5.3% (inactive); with `CCCCCCCCCCn1c2c(c(=N)c3c1CCC3)CCC2`, -24.6% (inactive); with `CCn1c(=O)c2c(n3cnnc13)-c1ccccc1CC21CCCCC1`, 5.6% (inactive).
Same read-out and setting: to `O=C1c2cccc3c([N+](=O)[O-])ccc(c23)C(=O)N1c1ccc(Cl)cn1` belongs -13.4% (inactive); to `CC(=O)c1ccc(Oc2cc(C)nc(-n3nc(C)cc3C)n2)cc1`, 11% (inactive).
Consider `CN1CCc2nc3sc(C#N)c(N)c3c(-c3cccs3)c2C1`, for which the inhibition was 5.3% (inactive).
Same read-out and setting: with `COc1ccc(-c2cc3ccccc3oc2=O)cc1NC(=O)c1ccc([N+](=O)[O-])o1` the figure was -8.3% (inactive); with `O=S(=O)(c1ccc(Cl)cc1)c1snnc1-c1ccccc1`, 9.2% (inactive).
On the same count and under the same terms, to `COc1ccc(Cl)c(NC(=O)Nc2c(C)n(-c3ccccc3)c(=O)n2C)c1` belongs 0.8% (inactive).
On the same count and under the same terms, with `COc1ccc(C(=O)C(CN2CCCC2)c2ccccc2)cc1` (centres undefined) the figure was 8.8% (inactive).
For the molecule `CCC(=O)c1c[nH]c(C(=O)NCC2CCCO2)c1` (centres undefined), the inhibition was -0.5% (inactive).
On the same count and under the same terms, to `CCOC(=O)N1CCN(C(=O)c2ccc3c(c2)NC(=O)C(N2CCOCC2)S3)CC1` (centres undefined) belongs -8.5% (inactive); to `O=Cc1cc2ccccc2nc1SCc1ccc(Cl)cc1`, 8.6% (inactive).
Regarding `Cc1cnc(NC(=O)C2CCCC2)s1`, the inhibition is -5.2% (inactive).
The same measure, in the same setting: to `CCOC(=O)c1ccc(N2C(=O)CC(N3CCC(O)(c4ccc(Br)cc4)CC3)C2=O)cc1` (centres undefined) belongs 5.5% (inactive); to `C=CCCCOc1ccc(C(=O)O)cc1`, -2.1% (inactive); to `COC(=O)CN(c1ccc(F)cc1)S(=O)(=O)c1ccc2c(c1)OCCO2`, 10.7% (inactive).
Take `COc1ccc(NC(=O)/C(Cl)=C(/Cl)S(=O)(=O)Cc2ccc(C)cc2)cn1`: the inhibition was 5.2% (inactive).
The same measure, in the same setting: with `O=C(O)C1C2C=CC(O2)C1C(=O)Nc1ccc(S(=O)(=O)Nc2ccccc2)cc1` (centres undefined) the figure was -5.8% (inactive); with `O=c1c2ccccc2nnn1CSc1ncnc2ccccc12`, -4% (inactive).
Same read-out and setting: to `CCOC(=O)c1cnn(-c2nc(CC)nc3sc4c(c23)CCC4)c1N` belongs -4.7% (inactive); to `O=C1C(=O)c2ccccc2-c2ccccc21`, -13.5% (inactive); to `CC(=O)Nc1ccc(S(=O)(=O)n2cnc(C)c2)cc1`, 6.7% (inactive).
The same measure, in the same setting: to `COc1ccc(C(c2sc3ncnn3c2O)N2CC(C)OC(C)C2)cc1OC` (centres undefined) belongs 5% (inactive).
`C=CCNC(=O)C1CC(=O)N(c2ccc(OCC(=O)Nc3cccc(OC)c3)cc2)C1` (centres undefined): the inhibition is -2% (inactive).
On the same count and under the same terms, to `O=C(COC(=O)C1c2ccccc2Oc2ccccc21)NC1CCS(=O)(=O)C1` (centres undefined) belongs -16.7% (inactive); to `O=C(Cn1ncc2c(=O)oc3ccccc3c21)NCCC1=CCCCC1`, -3.1% (inactive).
With `COc1cccc(/C=N/Nc2nc(Nc3ccccc3)nc(-n3nc(C)cc3C)n2)c1O`, the inhibition was 1.2% (inactive).
On to `CCOC(=O)c1cc2c(ccn2C)n1Cc1ccccc1C`, for which the inhibition was 2.4% (inactive).
Same read-out and setting: with `Cc1ccc(-c2nnc3ccc(SCC(=O)Nc4cc(C)on4)nn23)cc1` the figure was -5.1% (inactive); with `OCCNCC(O)Cn1ccc2ccccc21` (centres undefined), -2.9% (inactive); with `COc1cc(NC(=O)c2ccc(COCC(F)(F)F)o2)cc(OC)c1OC`, 5.2% (inactive).
On the same count and under the same terms, to `CCOc1ccc(C(=O)C(c2ccccc2)N2CCOCC2)cc1` (centres undefined) belongs 4.3% (inactive); to `O=c1cc(C(Cl)(Cl)Cl)oc2c1ccc1ccccc12`, -13.6% (inactive).
The same measure, in the same setting: with `CC(=O)c1cccc(NC(=O)NCc2cccnc2)c1` the figure was 12.9% (inactive); with `Cc1cc(C(=O)NN)c2cc(Br)ccc2n1`, -2% (inactive); with `C=CCNC(=O)c1nn2cccnc2c1Cl`, -9.5% (inactive).
As to `C=CCn1c(SCc2c(C)noc2C)nc2ccccc2c1=O`, the inhibition is 4.2% (inactive).
On the same count and under the same terms, with `CCN1CCN(Cc2c(C)[nH]c3ccc(C(=O)OC)cc3c2=O)CC1` the figure was -6.7% (inactive); with `O=C(c1ccc(Cl)cc1)N1CCCOC1`, -2% (inactive); with `CCNc1nc(NCC)n2c(SCc3ccc(F)cc3)nnc2n1`, 4.8% (inactive).
Still for that read-out and setting: to `O=C(CSc1nc2ccccc2s1)NNC(=S)Nc1ccc(Br)cc1` belongs -0.6% (inactive); to `O=C(CF)NC(Nc1cccc2cccnc12)C(Cl)(Cl)Cl` (centres undefined), -8.8% (inactive).
Still for that read-out and setting: to `COC(=O)c1ccccc1NC(=O)Cn1c(-c2nonc2N)nc2ccccc21` belongs 4.2% (inactive).
For the molecule `O=S(=O)(C/C(=C/CO)S(=O)(=O)c1ccccc1)c1ccccc1`, the inhibition was -4.1% (inactive).
The same measure, in the same setting: to `O=C(CN1CCN(c2nc(-c3ccc(F)cc3)cs2)CC1)Nc1ccc2c(c1)OCO2` belongs -7.5% (inactive); to `CC1Oc2ccccc2C=C1/C=C1/SC(N2CCOCC2)=NC1=O` (centres undefined), -1.2% (inactive).
Still for that read-out and setting: with `C=CCn1c(=O)c2c(nc3n2CC(C)CN3c2cccc(OC)c2)n(C)c1=O` (centres undefined) the figure was -8.1% (inactive); with `CC(=O)NC1CC2CCCC(C1)N2` (centres undefined), -18.6% (inactive).
The same measure, in the same setting: to `COc1cc(C2Nc3ccc4ncccc4c3C3=C2C(=O)CCC3)cc(OC)c1O` (centres undefined) belongs 1.2% (inactive); to `C/C(=N\Nc1nc2c(s1)CCCC2)c1ccccc1`, -2.4% (inactive); to `Cc1ccc(-n2c([O-])nc(-[n+]3ccccc3)c2C=O)cc1`, -7.2% (inactive).
Regarding `Cc1nn(-c2cc(C)c3ccccc3n2)c2c1C1C(C2)C1(C)C` (centres undefined), the inhibition is 3.3% (inactive).
Regarding `CC1(C)Cc2c(oc3ncn4ncnc4c23)CO1`, the inhibition was 2.7% (inactive).
The same measure, in the same setting: to `Cc1ccc(Cl)cc1NC1=C/C(=N\S(=O)(=O)c2cccs2)c2ccccc2C1=O` belongs -8% (inactive).
Turning to `Cc1ccccc1CS(=O)(=O)c1nnc([C@H](Cc2ccccc2)NC(=O)OC(C)(C)C)o1`, the inhibition was 0.1% (inactive).
Same read-out and setting: with `CCn1c(SCC(=O)Nc2ccc(C(=O)OC)cc2)nnc1-c1cccs1` the figure was 0.4% (inactive).
Consider `O=C1c2cccc3c([N+](=O)[O-])ccc(c23)C(=O)N1c1nccs1`, for which the inhibition was -0.1% (inactive).
On the same count and under the same terms, with `CC(C)(C)c1ccc(C(=O)N/N=C/c2cccc(Cl)c2)cc1` the figure was 7.3% (inactive).
Same read-out and setting: with `O=[N+]([O-])c1cnccc1Nc1ccc(F)cc1` the figure was 4.7% (inactive).

The same test, now with this note: cell-based imaging, cytoskeleton assembly phenotype, high content; cell count; at 10 µM; stronger effect = lower value.
`CCOc1ccc(C2=Nn3c(nnc3-c3ccccc3OC)SC2)cc1` gave a cell count of 36.3%.
